Measurements reported in ChEMBL document CHEMBL4265904, “Hybrids of arenobufagin and benzoisoselenazol reducing the cardiotoxicity of arenobufagin” (Bioorg Med Chem Lett, 2018).
Calls of active or inactive are those of the source. The rule behind the calls is not given here.

Assays:
[1] = Cytotoxic activity against human AC16 cells assessed as cell swelling at 1 uM after 24 hrs by phase contrast microscopic method; assay type: cell-based
Homo sapiens = organism: Homo sapiens; assay: Cytoprotective activity against H2O2-induced oxidative damage in human AC16 cells at 1 uM preincubated for 30 mins followed by H2O2 addition and measured after 6 hrs; assay type: functional, cell-based
[2] = Cytotoxic activity against human AC16 cells assessed as cell detachment from substratum at 1 uM after 24 hrs by phase contrast microscopic method; assay type: cell-based
[3] = Selectivity index, ratio of IC50 for human AC16 cells to IC50 for human HepG2 cells; assay type: toxicity; conditions: AC16 cells and HepG2 cells, read-out: Ratio IC50
[4] = Antiproliferative activity against human AC16 cells by MTT assay; assay type: cell-based
HepG2 [5] = assay: Inhibition of ROS generation in human HepG2 cells at 1 uM after 2 hrs by DCFH-DA staining based method; assay type: functional, cell-based
[6] = Antiproliferative activity against human HepG2/ADM cells by MTT assay; assay type: functional, cell-based
HepG2 [7] = assay: Antiproliferative activity against human HepG2 cells by MTT assay; assay type: functional, cell-based
[8] = Toxicity in ip dosed Kunming mouse assessed as mortality; assay type: organism-based; conditions: in vivo
HepG2 [9] = assay: Antiproliferative activity against human HepG2 cells after 48 hrs by MTT assay; assay type: functional, cell-based; conditions: HepG2, 48 h

SMILES | Activity [1] | Activity (Homo sapiens) | Activity [2] | selectivity ratio [3] | IC50 [4] [nM] | inhibition (HepG2 [5]) | IC50 [6] [nM] | IC50 (HepG2 [7]) [nM] | LD50 [8] [mg/kg] | IC50 (HepG2 [9]) [nM]
C[C@]12CC[C@H](OC(=O)[C@H](Cc3ccccc3)n3[se]c4ccccc4c3=O)C[C@H]1CC[C@@H]1[C@@H]2[C@H](O)C(=O)[C@]2(C)[C@@H](c3ccc(=O)oc3)CC[C@]12O | Non-Toxic | Active | Non-Toxic | 9.47 | 3210 | Active | 5590 | 339 |  | 
C[C@]12CC[C@H](O)C[C@H]1CC[C@@H]1[C@@H]2[C@H](O)C(=O)[C@]2(C)[C@@H](c3ccc(=O)oc3)CC[C@]12O | Toxic |  | Toxic | 0.25 | 5 |  | 56 | 20 | 20 | 0.1 to 10
C[C@]12CC[C@H](OC(=O)[C@H](Cc3ccccc3)n3[se]c4cc(C(F)(F)F)ccc4c3=O)C[C@H]1CC[C@@H]1[C@@H]2[C@H](O)C(=O)[C@]2(C)[C@@H](c3ccc(=O)oc3)CC[C@]12O | Non-Toxic | Active | Non-Toxic | 16.2 | 4300 | Active | 9740 | 265 |  | 
Cc1ccc2c(=O)n(CC(=O)O[C@H]3CC[C@@]4(C)[C@H](CC[C@@H]5[C@@H]4[C@H](O)C(=O)[C@]4(C)[C@@H](c6ccc(=O)oc6)CC[C@]54O)C3)[se]c2c1 |  |  |  | 3.51 | 2130 |  | 2450 | 607 |  | 
COc1ccc2c(=O)n([C@@H](Cc3ccccc3)C(=O)O[C@H]3CC[C@@]4(C)[C@H](CC[C@@H]5[C@@H]4[C@H](O)C(=O)[C@]4(C)[C@@H](c6ccc(=O)oc6)CC[C@]54O)C3)[se]c2c1 | Non-Toxic | Active | Non-Toxic | 7.21 | 2200 | Active | 5860 | 305 |  | 
Cc1ccc2c(=O)n([C@@H](Cc3ccccc3)C(=O)O[C@H]3CC[C@@]4(C)[C@H](CC[C@@H]5[C@@H]4[C@H](O)C(=O)[C@]4(C)[C@@H](c6ccc(=O)oc6)CC[C@]54O)C3)[se]c2c1 | Non-Toxic | Active | Non-Toxic | 7.3 | 3570 |  | 7940 | 489 |  | 
CC[C@H](C)[C@@H](C(=O)O[C@H]1CC[C@@]2(C)[C@H](CC[C@@H]3[C@@H]2[C@H](O)C(=O)[C@]2(C)[C@@H](c4ccc(=O)oc4)CC[C@]32O)C1)n1[se]c2cc(OC)ccc2c1=O |  |  |  | 1.03 | 15000 |  | 36700 | 14500 |  | 
O=c1c2ccccc2[se]n1-c1ccccc1 |  | Active |  |  |  |  |  |  |  | 
